PubChem BioAssay AID1996
Converted amounts (≈) assume the structure as drawn.

details: buffer; pH 7.4; 200.0 µM

Row | SMILES | solubility kinetic
1 | O=C(O)CCCC(=O)N1CCN(c2ncccn2)CC1 | > 41.7 µg/mL
2 | COCCNC(=S)NCc1cccs1 | 31.9 µg/mL (≈ 138 µM)
3 | CC(C)(CNS(=O)(=O)c1cccs1)N1CCOCC1 | > 45.7 µg/mL
4 | COc1cccc(N2CN(C3CCCCC3)CNC2=S)c1 | > 45.8 µg/mL
5 | O=C(CSCc1c(Cl)cccc1Cl)Nc1cccnc1 | 35.9 µg/mL (≈ 110 µM)
6 | CC12CCC(C/C1=N\OC(=O)c1c(F)cccc1F)C2(C)C (configuration not stated) | 21.5 µg/mL (≈ 70 µM)
7 | Cc1c(NS(=O)(=O)c2cccc(C(=O)N3CCCC3)c2)c(=O)n(-c2ccccc2)n1C | > 66.1 µg/mL
8 | CSc1nc2ccc(Br)cc2[nH]1 | 35.7 µg/mL (≈ 147 µM)
9 | CC(=O)N1CC2([N+](=O)[O-])CN(C(C)=O)CC([N+](=O)[O-])(C1)C2(C)C | > 49.2 µg/mL
10 | CCCCOc1ccc(CC2CCC(=O)NC2=O)cc1 (configuration not stated) | 10.2 µg/mL (≈ 37 µM)
11 | Cc1ccccc1NC(=O)Cn1c(=O)oc2ccccc21 | 14.4 µg/mL (≈ 51 µM)
12 | CC(C)Nc1nc(Cl)nc(Nc2ccccc2)n1 | 27.3 µg/mL (≈ 104 µM)
13 | CC(=O)Nc1ccc(OCc2ccc3c(c2)OCO3)cc1 | 15.4 µg/mL (≈ 54 µM)
14 | O=C1C2CCCCN2C(=O)N1CCCN1CCN(c2ccc(F)cc2)CC1 (configuration not stated) | 48.1 µg/mL (≈ 128 µM)
15 | CC(C)(C)c1ccc(NC(=O)NC2CCCc3ccccc32)cc1 (configuration not stated) | < 0.3 µg/mL
16 | CC(NC(=O)c1cc(F)c(F)cc1Cl)c1ccncc1 (configuration not stated) | > 44.5 µg/mL
17 | Cc1cc(NC(=O)C2CC(=O)N(c3ccc(Cl)cc3)C2)no1 (configuration not stated) | 31 µg/mL (≈ 97 µM)
18 | CN(Cc1ccccc1F)C(=O)c1ccc(Oc2ccccc2)cc1 | 4.2 µg/mL (≈ 12.5 µM)
19 | Cc1[nH]c2ccccc2c1C(=O)C(C)OC(=O)C1CCC1 (configuration not stated) | > 42.8 µg/mL
20 | CC(OCCN(C)C)C(=O)C12CC3CC(CC(C3)C1)C2.Cl (configuration not stated) | 46.8 µg/mL
21 | COCCNC(=O)c1cc2sccc2n1C | > 35.7 µg/mL
22 | CC(=O)OCC(=O)Nc1ccc(SC(F)F)cc1 | > 41.3 µg/mL
23 | O=C(NCCc1ccccc1)c1cnc2n(c1=O)CCS2 | 45 µg/mL (≈ 149 µM)
24 | Cc1cc(C)cc(NC(=O)N2C3CCCC2CC(NC(=O)C2CC2)C3)c1 (configuration not stated) | 1.6 µg/mL (≈ 4.5 µM)
25 | Cl.O=C(O)Cc1cnc[nH]1 | > 24.4 µg/mL
26 | CS(=O)(=O)N1CCC(C(=O)N2CCN(c3ccccc3F)CC2)CC1 | 53.1 µg/mL (≈ 144 µM)
27 | CC(C)n1c(CN2CCN(Cc3ccccc3)CC2)nc2ccccc21 | 34.8 µg/mL (≈ 99.9 µM)
28 | Cc1ccc2nc(SCC(=O)Nc3c(F)cccc3F)[nH]c2c1 | 43.4 µg/mL (≈ 130 µM)
29 | O=C(Nc1ccccc1C(F)(F)F)c1ccsc1 | > 40.7 µg/mL
30 | CC(C)(C)c1ccc(CCC2OCC(CN3CCOCC3)O2)cc1 (configuration not stated) | 40 µg/mL (≈ 120 µM)

More lines, now with the values ahead:

Row | solubility kinetic | SMILES
31 | > 50.6 µg/mL | O=C(COc1ccc2ccc(=O)oc2c1)NC1CCS(=O)(=O)C1 (configuration not stated)
32 | > 45 µg/mL | O=C(CNC(=O)c1ccccc1)Oc1ccc([N+](=O)[O-])cc1
33 | 3.2 µg/mL (≈ 11.9 µM) | Cc1ccc(CNC(=O)c2ccc(N(C)C)cc2)cc1
34 | > 48.2 µg/mL | COc1ccc(C(=O)O)cc1S(=O)(=O)Nc1ccc(C)cc1
35 | 10.6 µg/mL (≈ 35 µM) | O=C(CNC(=O)c1ccccc1)NCc1ccc(Cl)cc1
36 | 5.6 µg/mL (≈ 19.6 µM) | CCCNC(=O)c1noc2c1CCc1cc(OC)ccc1-2
37 | 39.4 µg/mL (≈ 129 µM) | CC(OC(=O)c1ccc2ncsc2c1)C(=O)N1CCCC1 (configuration not stated)
38 | 12.6 µg/mL (≈ 38 µM) | COC(=O)c1cc(OC(=O)c2ccc(=O)[nH]c2)cc(C(=O)OC)c1
39 | > 61.9 µg/mL | COc1ccc([N+](=O)[O-])cc1NC(=O)COC(=O)Cn1cnc2ccccc2c1=O
40 | 53 µg/mL (≈ 137 µM) | COc1ccccc1NS(=O)(=O)c1ccc(C(=O)NCc2ccco2)cc1
41 | > 49.1 µg/mL | COc1ccc(NC(=O)CC(C(=O)O)C(C)c2ccccc2)cc1 (configuration not stated)
42 | > 51.2 µg/mL | O=C(CCc1ccccc1)NCC(=O)N/N=C/c1ccc(O)cc1O
43 | 1 µg/mL (≈ 2.98 µM) | NC(=O)COc1ccc2oc(=O)cc(-c3cc4ccccc4o3)c2c1
44 | > 39 µg/mL | Cc1ccc(NC(=O)c2ccc([N+](=O)[O-])o2)c(C)c1
45 | > 47.3 µg/mL | CCOC(=O)N[C@H](Cc1c[nH]c2ccccc12)C(=O)NC1CC1
46 | > 32.1 µg/mL | Cc1ccc(C(=O)c2nccn2C)cc1C
47 | > 48.2 µg/mL | O=C(COC(=O)Cn1ccc(=O)[nH]c1=O)Nc1ccc(F)cc1
